What was measured:
[1] = tested on: MC38 murine colon carcinoma cells; test: Anti-tumor efficacy in subcutaneous MC38 syngeneic tumor model (tumor growth, survival); assay type: in vivo, mouse
Procedure: The characteristics of each animal study group, the administration of the test articles and timing, the collection of samples and the overall study design are as shown in Tables 1 and 2:
(68-72° F.) and 40-60% humidity.
Additional aliquots were stored at 4° C. for use within 72 hours of formulation. Just prior to administration, dosing solutions were remixed with gentle inversion.
Group mean tumor volumes were plotted versus time. When an animal exited the study because of tumor size or TR death, its final recorded tumor volume was included with the data used to calculate the mean volume. Mean tumor volumes were calculated for a group until 50% of the animals had exited the study. Kaplan-Meier plots show the percentage of animals in each group remaining in the study versus time.

[2] = tested on: gene expression in MC38 tumors; test: RNA-Seq gene expression in MC38 tumors, Day 10; assay type: in vivo, mouse
Procedure: On Day 10 spleens and tumors were collected and weighed from all animals in Groups 7 through 12 and weighed prior to processing. Tissues from four animals in each group were processed to single cell suspensions for flow cytometry analysis at CRL-NC (described below). Tissues from the remaining six animals in each group were preserved in RNAlater, stored at −80° C.
Tumors and spleens were dissected on the appropriate day of the study and were weighed and immediately placed in RNAlater Stabilizing Reagent to preserve the tissue and stored overnight at 4 deg C. The following day, the samples were removed from RNA later and snap frozen and placed at −80 deg C.
Unless otherwise indicated, everything was done on ice and the materials were prechilled on ice. The tissues were homogenized in TRIzol in Precellys tissue grinding tubes. After homogenization, the TRIzol solutions were transferred to 1.5 ml tubes and spun for 5 min at 12,000×g to eliminate the insoluble material. The TRIzol solutions were then transferred to Phasemaker tubes. Chloroform was added, the tubes were capped, and shaken vigorously for 15 seconds. The samples were then incubated at room temperature for 2-15 minutes and centrifuged at 12,000×g for 5 minutes. The upper, aqueous phase was then transferred to a new tube and an equal volume of 70% ethanol was added and it was vortexed. The liquid was then transferred to Qiagen RNeasy columns and centrifuged at 8000×g. DNAse was added to each tube to eliminate any residual DNA. The columns were then washed and eluted as directed by the kit. The RNA concentrations were determined using a Qubit.
Libraries were prepared for sequencing by using the Mouse Transcriptome Ion AmpliSeq Library Preparation on the Ion Chef System as directed by the manufacturer. Eight samples of purified RNA and 8 unique IonCode molecular barcodes were added to a 96 well plate and were prepared at a time. After the libraries were prepared, they were templated and loaded onto an Ion Torrent 540 chip using the Ion 540 Chef Kit from ThermoFisher. The 540 chips were then loaded into a Gene Studio S5 sequencer and sequenced.
Raw sequencing data was processed by Torrent Suite (v5.8.0) software that came with the Gene Studio sequencer (ThermoFisher). For each sample, this program summarized gene expression in a CHP file. The CHP files were then loaded into the Transcriptome Analysis Console (TAC) program (ThermoFisher).

[3] = T cell signaling gene, MC38 tumors Day 10 RNA-Seq, lucitanib 10 mg/kg po, SEQ ID NO. 2 3 mg/kg sc
[4] = Type I/II interferon pathway gene, MC38 tumors Day 10 RNA-Seq, lucitanib 10 mg/kg po, SEQ ID NO. 2 3 mg/kg sc
[5] = antigen presentation gene, MC38 tumors Day 10 RNA-Seq, lucitanib 10 mg/kg po, SEQ ID NO. 2 3 mg/kg sc

Structure (SMILES): CNC(=O)c1cccc2cc(Oc3ccnc4cc(OCC5(N)CC5)c(OC)cc34)ccc12 [Lucitanib, 6-(7-((1-Aminocyclopropyl)-methoxy)-6-methoxyquinolin-4-yloxy)-N-methyl-1-naphthamide]
- tumor growth inhibition (TGI) ([1]; Day 11, lucitanib monotherapy 10 mg/kg p.o. daily): 100%
- median survival time ([1]; lucitanib monotherapy 10 mg/kg p.o. daily for 28 days, vehicle 15 days): 39 days
- tumor growth outcome (summary in words) ([1]; treatment arm summaries): transient inhibition of tumor growth
- Cd3e mean expression value relative to vehicle group [2, 3]: 2.49
- Cd4 mean expression value relative to vehicle group [2, 3]: 2.67
- Cd8a mean expression value relative to vehicle group [2, 3]: 2.03
- Cd8b1 mean expression value relative to vehicle group [2, 3]: 3.57
- Cd28 mean expression value relative to vehicle group [2, 3]: 5.49
- Cd247 mean expression value relative to vehicle group [2, 3]: 1.44
- Cd3d mean expression value relative to vehicle group [2, 3]: 3.14
- Ctla4 mean expression value relative to vehicle group [2, 3]: 4.10
- H2-Aa mean expression value relative to vehicle group [2, 3]: 1.59
- H2-Ab1 mean expression value relative to vehicle group [2, 3]: 1.12
- H2-Eb1 mean expression value relative to vehicle group [2, 3]: 1.66
- Icos mean expression value relative to vehicle group [2, 3]: 6.03
- Ifng mean expression value relative to vehicle group [2, 3]: 2.74
- Il2 mean expression value relative to vehicle group [2, 3]: 0.60
- Lck mean expression value relative to vehicle group [2, 3]: 1.36
- Lcp2 mean expression value relative to vehicle group [2, 3]: 0.40
- Nfatc2 mean expression value relative to vehicle group [2, 3]: 0.34
- Pdcd1 mean expression value relative to vehicle group [2, 3]: 0.75
- Ptpn22 mean expression value relative to vehicle group [2, 3]: 1.16
- Ptprc mean expression value relative to vehicle group [2, 3]: 2.25
- Zap70 mean expression value relative to vehicle group [2, 3]: 1.46
- B2m mean expression value relative to vehicle group [2, 4]: 0.32
- Bst2 mean expression value relative to vehicle group [2, 4]: 0.75
- Cd44 mean expression value relative to vehicle group [2, 4]: −0.26
- Ciita mean expression value relative to vehicle group [2, 4]: 0.62
- Fcgr1 mean expression value relative to vehicle group [2, 4]: 1.56
- Gm10499 mean expression value relative to vehicle group [2, 4]: 0.04
- H2-Aa mean expression value relative to vehicle group [2, 4]: 1.59
- H2-Ab1 mean expression value relative to vehicle group [2, 4]: 1.12
- H2-Eb1 mean expression value relative to vehicle group [2, 4]: 1.66
- H2-K1 mean expression value relative to vehicle group [2, 4]: 0.26
- H2-Q10 mean expression value relative to vehicle group [2, 4]: 0.32
- Icam1 mean expression value relative to vehicle group [2, 4]: 0.43
- Ifi35 mean expression value relative to vehicle group [2, 4]: 0.62
- Ifit2 mean expression value relative to vehicle group [2, 4]: 0.25
- Ifitm1 mean expression value relative to vehicle group [2, 4]: 0.38
- Ifna2 mean expression value relative to vehicle group [2, 4]: 0
- Ifnar1 mean expression value relative to vehicle group [2, 4]: −0.01
- Ifnar2 mean expression value relative to vehicle group [2, 4]: 0.39
- Ifnb1 mean expression value relative to vehicle group [2, 4]: 0.12
- Ifng mean expression value relative to vehicle group [2, 4]: 2.74
- Ifngr1 mean expression value relative to vehicle group [2, 4]: 0.84
- Irf1 mean expression value relative to vehicle group [2, 4]: 0.3
- Irf4 mean expression value relative to vehicle group [2, 4]: 1.23
- Irf5 mean expression value relative to vehicle group [2, 4]: 0.02
- Irf8 mean expression value relative to vehicle group [2, 4]: 0.38
- Mx1 mean expression value relative to vehicle group [2, 4]: 1.14
- Ncam1 mean expression value relative to vehicle group [2, 4]: 0.14
- Pml mean expression value relative to vehicle group [2, 4]: 0.19
- Ptpn6 mean expression value relative to vehicle group [2, 4]: 0.25
- Socs3 mean expression value relative to vehicle group [2, 4]: −0.24
- Tyk2 mean expression value relative to vehicle group [2, 4]: −0.16
- Vcam1 mean expression value relative to vehicle group [2, 4]: 0.52
- B2m mean expression value relative to vehicle group [2, 5]: 0.32
- Btk mean expression value relative to vehicle group [2, 5]: 0.42
- Cd14 mean expression value relative to vehicle group [2, 5]: 0.26
- Cd36 mean expression value relative to vehicle group [2, 5]: 4.37
- Cd74 mean expression value relative to vehicle group [2, 5]: 1.18
- Ctsc mean expression value relative to vehicle group [2, 5]: 0.36
- Ctss mean expression value relative to vehicle group [2, 5]: 2.29
- Cybb mean expression value relative to vehicle group [2, 5]: 1.66
- Fcgr1 mean expression value relative to vehicle group [2, 5]: 1.56
- H2-Aa mean expression value relative to vehicle group [2, 5]: 1.59
- H2-Ab1 mean expression value relative to vehicle group [2, 5]: 1.12
- H2-DMa mean expression value relative to vehicle group [2, 5]: 1.18
- H2-DMb2 mean expression value relative to vehicle group [2, 5]: 0.84
- H2-Ea-ps mean expression value relative to vehicle group [2, 5]: 0
- H2-Eb1 mean expression value relative to vehicle group [2, 5]: 1.66
- H2-K1 mean expression value relative to vehicle group [2, 5]: 0.26
- H2-Ob mean expression value relative to vehicle group [2, 5]: 2.19
- H2-Q10 mean expression value relative to vehicle group [2, 5]: 0.32
- Ly96 mean expression value relative to vehicle group [2, 5]: 0.58
- Ncf4 mean expression value relative to vehicle group [2, 5]: 0.62
- Psmb9 mean expression value relative to vehicle group [2, 5]: 0.6
- Tap1 mean expression value relative to vehicle group [2, 5]: 0.51
- Tlr1 mean expression value relative to vehicle group [2, 5]: 0.51
- Tlr2 mean expression value relative to vehicle group [2, 5]: 0.12
- Tlr4 mean expression value relative to vehicle group [2, 5]: 1.1
- Esm1 expression, a target of VEGF signaling ([2]; tumors): decrease
- expression of genes associated with cytotoxic immune cell function, T cell activation, and antigen presentation ([2]; tumors): Increased expression
